Earlier results, collected in patent publication US20250170053A1, “LONG-LASTING RESORBABLE SUBCUTANEOUS IMPLANT WITH PROLONGED RELEASE OF PRE-CONCENTRATED PHARMACOLOGICALLY ACTIVE SUBSTANCE IN A POLYMER FOR THE ADJUVANT TREATMENT OF EPILEPSY, CHRONIC PAIN AND ANXIETY, AND METHOD” (priority 2022, published 2025).

Columns and labels:
rodents = settings: systemic administration
[1] = tested on: patients with treatment-resistant epilepsy; settings: 2 to 50 mg/kg/day oral CBD, twelve weeks
[2] = tested on: healthy volunteers and patients with anxiety disorders; settings: inverted U-shaped dose-response curve in humans

C=C(C)[C@@H]1CCC(C)=C[C@H]1c1c(O)cc(CCCCC)cc1O [CBD, cannabidiol]
effect in the elevated plus-maze test (rodents): antianxiety effects
individuals who discontinued treatment due to some adverse event [1]: 3%
safety and tolerability of the drug [1]: acceptable
average reduction in seizure frequency ([1]; adjunctive therapy, patients aged one to thirty years): 36.5%
anxiolytic activity [2]: significant anxiolytic activity
